Patent US20160346249A1 (priority 2012, published 2016)

Assays:
[1] = In vitro metabolism in human hepatocytes; settings: 100 μM
Method: Cryopreserved human hepatocytes (male) that are prepared by XenoTech, LLC (Lenexa, Kans.), are thawed on the day of use and resuspended in Waymouth's incubation media. The enzymatic activity of hepatocytes is monitored using 7-ethoxycoumarin and 7-hydroxycoumarin as substrates. […] The incubations are carried out for 4 hours with 1×10^6 viable cells/ml. […] At 0 and 4 hour, cell suspensions are extracted using two volumes of ice cold methanol. After centrifugation, the extracts are stored at −20° C. until further sample processing. The solvent in the samples are dried under a stream of nitrogen, and resuspended in methanol:water (1:1) before analysis.
The extracts of the 4 hour incubation mixture are analyzed by liquid chromatography/electrospray ionization-mass spectrometry (LC/ESI-MS) in the positive and negative ion modes to screen for possible metabolites. HPLC Methods 1 and 2 are used to find potential metabolites, and the HPLC and mass spectrometry systems are described in Table 56. The same instrumentation and methods in HPLC Method 1 are used in HPLC Method 2 with the exception that the mobile phases and gradient are changed to 0.4% HCOOH in H2O for mobile A and CH3OH for mobile phase B. The mass spectrometer is LCQ™ Ion Trap Mass Spectrometer and is in either the positive or negative electrospray mode with the ion spray set at 4.5 kV. The capillary temperature is 250° C., the nitrogen sheath gas flow rate is ˜80 unit, the auxiliary nitrogen gas flow rate is 20 unit, and the collision gas is helium.

CYP2C19 = CYP2C19 (Homo sapiens, UniProt P33261); experiment: Inhibition of human CYP activity in microsomes: (S)-mephenytoin 4′-hydroxylation; settings: read-out: IC50, CYP2C19 (S)-Mephenytoin 4′-hydroxylation; pooled human liver microsomes; 10 to 30 min at 37° C.
[2] = system: FMO, human liver microsome (HLM); experiment: FMO dependent metabolism (pre-incubation temperature), human liver microsomes; settings: HLM, positive control
Method: (§1) The microsomal incubation mixtures (ca. 0.2 mL) were prepared in triplicate in 0.1M potassium phosphate buffer (pH 7.4) containing 0.25 mg/mL microsomal protein (RLM and HLM), 1 mM EDTA, 4 mM MgCl2, and […]. Incubation mixtures were pre-incubated aerobically in a shaking water bath at 37° C. and 45° C. respectively for ca. 5 minutes. The reaction was initiated by the addition of NADPH (final concentration of 1 mM). […] For the positive controls, benzydamine (Sigma-Aldrich, St. Louis, Mo.) (final concentration 200 μM) was used in the incubation mixture. For the negative controls, water was used in the incubation mixtures instead of microsome protein. The mixtures were kept at ca. −20° C. before analysis by LC-MS/MS.
(§2) The incubation of benzydamine (positive control, 200 μM) was carried out concurrently and the formation of benzydamine N-oxide was monitored by LC-MS/MS.

[3] = system: FMO, rat liver microsome (RLM); experiment: FMO dependent metabolism (pre-incubation temperature), rat liver microsomes; settings: for formation from benzydamine 200 μM, AUC ratio to internal standard (mean ± SD): RLM, positive control
Method: as §1, §2

[4] = NADPH dependent metabolism, human liver microsomes; type: in vitro ADME; settings: HLM
Method: (§3) Bicifadine (10 μM) was used as the positive control and the formation of the lactam metabolites of bicifadine (M-12) was monitored.

[5] = NADPH dependent metabolism, rat liver microsomes; type: in vitro ADME; settings: RLM
Method: as §3

[6] = human, in vivo; cited from earlier work
[7] = eight weeks of treatment; cited from earlier work

Sequence of CYP2C19 (P33261 whole entry): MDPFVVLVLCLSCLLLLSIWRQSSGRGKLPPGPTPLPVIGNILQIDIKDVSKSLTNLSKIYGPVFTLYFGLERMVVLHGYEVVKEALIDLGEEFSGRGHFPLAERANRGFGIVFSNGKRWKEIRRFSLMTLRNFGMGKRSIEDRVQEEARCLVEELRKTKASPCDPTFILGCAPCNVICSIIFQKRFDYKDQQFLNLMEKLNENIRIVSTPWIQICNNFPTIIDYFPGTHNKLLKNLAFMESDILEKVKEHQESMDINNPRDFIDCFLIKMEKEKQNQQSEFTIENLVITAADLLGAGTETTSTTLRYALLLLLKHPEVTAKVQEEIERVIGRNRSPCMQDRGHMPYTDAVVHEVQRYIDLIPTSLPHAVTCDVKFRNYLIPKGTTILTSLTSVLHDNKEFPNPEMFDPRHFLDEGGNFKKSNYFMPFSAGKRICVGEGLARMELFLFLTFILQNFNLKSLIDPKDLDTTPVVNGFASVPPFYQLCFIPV

## CCOc1ccc2ccc(=O)oc2c1 [7-ethoxycoumarin, reference compound]
[1]; male, human, hepatocytes, 4 h
  metabolized after 4 hours incubation: 68.9%

## O=c1ccc2ccc(O)cc2o1 [7-hydroxycoumarin, reference compound]
[1]; activity control substrate
  metabolized after 4 hours incubation: 99.1%

## CC[C@@]1(c2ccccc2)C(=O)NC(=O)N(Cc2ccccc2)C1=O [(R)-N-3-benzyl-Phenobarb-ital]
CYP2C19
  IC50: 300 nM

## C[N+](C)([O-])CCCOc1nn(Cc2ccccc2)c2ccccc12 [Benzydamine N-oxide, benzydamine N-oxide]
[2]; pre-treatment 37° C.
  formation from benzydamine 200 μM, AUC ratio to internal standard (mean ± SD): 35.70 ± 0.86
[2]; pre-treatment 45° C.
  formation from benzydamine 200 μM, AUC ratio to internal standard (mean ± SD): 7.68 ± 1.51
[3]; pre-treatment 37° C.
  formation from benzydamine 200 μM, AUC ratio to internal standard (mean ± SD): 75.35 ± 0.75
[3]; pre-treatment 45° C.
  formation from benzydamine 200 μM, AUC ratio to internal standard (mean ± SD): 15.86 ± 1.31

## O=C1NC[C@H]2C[C@@]12c1ccc(Cl)c(Cl)c1 [EB-10101 isomer, (1S,5R)-5-(3,4-dichlorophenyl)-3-azabicyclo[3.1.0]hexan-4-one]
[4]
  area ratio isomer vs EB-10101: ca. 25 fold
[5]
  area ratio isomer vs EB-10101: ~140 fold
[3]; rat, 30 min, 10 μM, pH 7.4
  amount formed with 37° C. vs 45° C. pre-treatment: 7.3 fold

## COC[C@@H]1[C@@H](c2ccc(Cl)c(Cl)c2)C[C@@H]2CC[C@H]1N2 [GSK372475]
[6]
  benefit in comparison to placebo: failed to demonstrate a significant benefit in comparison to placebo

## N[C@@H]1CC[C@@H](c2ccc(Cl)c(Cl)c2)c2ccccc21 [SEP-289]
[7]
  primary efficacy endpoint vs placebo (17-item HAM-D): did not meet the primary efficacy endpoint compared to placebo
